Data on 22 molecules can be found in patent publication US9475766B2, “Substituted aromatic sulfur compounds and methods of their use” (Cephalon, Inc., priority 2011, dated 2016).

A value given as a limit tells only on which side of the number the result lay.

Common to all, as to assay type: cell-based
The subject of experiment [1] is BxPC3 pancreatic cell line. Nature of the experiment: Cell survival and adhesion assay (luciferase), BxPC3. The settings on record: BXPC-3, 5 hours, BxPC3 cells overlayed onto human mesothelial cell monolayers, read-out: relative reduction in Luciferase activity, BxPC3 10 μM. As to the method: (§1) SU86 is a pancreatic cancer cell line. HT29 is a colon cancer cell line. BxPC3 is a pancreatic cell line. A2780 is an ovarian cancer cell line.
(§2) BxPc-3 and Su.86.86 pancreatic and HT-29 colon and A2780 ovarian cancer cell lines were purchased from ATCC and cultured in DMEM supplemented with 10% fetal bovine serum, glutamine, penicillin, and streptomycin. All cells were cultured at 37° C. in a humidified incubator in a 5% CO2 atmosphere. The cancer cell lines were transduced with a retrovirus containing pLuc-puro, a constitutive luciferase reporter and selected in […] media. Transient transfection of a full-length human c-FLIP construct in the vector pcDNA3 was performed as previously described. Scaife et al. Cancer Research 2002, 62: 6870-78.
(§3) Pancreatic cancer cell cultures (BxPc-3 and Su.86.86) and colon cancer (HT-29) and ovarian cancer (A2780) cells that were stably transfected with a firefly luciferase construct were transiently suspended with trypsin-PBS. 10^5 cells were overlayed onto confluent monolayers of human mesothelial cells in 96-well plates while simultaneously adding various concentrations of compounds of the invention or DMSO for 5 hours. The non-adherent cells were carefully washed away from the wells twice with 100 μl/well of blocking buffer (1% BSA in PBS) and twice again with ice-cold PBS. Adherent and surviving cells were detected by luciferase activity in a luminometer as follows. The cells were lysed in 0.1% TritonX-100, 25 mM Gly-Gly (7.8), MgSO4, 4 mM EGTA, 1 mM DTT. The total protein concentration was normalized with lysis buffer. 50 μl of cell lysate was added per well of a 96-well microtiter plate. 50 μl of luciferin substrate (Promega) was added per well and then the light output determined in a luminometer.

Experiment [2] deals with A2780 ovarian cancer cell line. Nature of the experiment: Cell survival and adhesion assay (luciferase), A2780. The settings on record: 5 hours, A2780 cells overlayed onto human mesothelial cell monolayers, read-out: relative reduction in Luciferase activity, A2780 10 μM. As to the method:
as §1, §2, §3

The test system of experiment [3] is HT29 colon cancer cell line. The experiment in a line: Cell survival and adhesion assay (luciferase), HT29. To be noted: HT-29, 5 hours, HT29 cells overlayed onto human mesothelial cell monolayers, read-out: relative reduction in Luciferase activity, HT29 10 μM. The procedure: as §1, §2, §3
The test system of experiment [4] is SU86 pancreatic cancer cell line (Su.86.86). The experiment in a line: Cell survival and adhesion assay (luciferase), SU86. To be noted: 5 hours, SU86 cells overlayed onto human mesothelial cell monolayers, read-out: relative reduction in Luciferase activity, SU86 10 μM. The procedure: as §1, §2, §3

As to `COc1cccc(NC(=O)COc2ccc(S(=O)(=O)/C=C/C#N)cc2C(C)(C)C)c1` [Example 65, 2-[2-tert-Butyl-4-((E)-2-cyano-ethenesulfonyl)-phenoxy]-N-(3-methoxy-phenyl)-acetamide], the inhibition at 10 µM in experiment [1] is 50 to 85%; in experiment [2], over 85%; in experiment [3] it was over 85%; in experiment [4], 50 to 85%.
Consider `CC(C)(C(=O)NC1CCCCC1)c1ccc(S(=O)(=O)/C=C/C#N)cn1` [Example 86, 2-[5-((E)-2-Cyano-ethenesulfonyl)-pyridin-2-yl]-N-cyclohexyl-isobutyramide], for which the inhibition at 10 µM in experiment [1] was 50 to 85%; in experiment [2], 10 to 50%; in experiment [3], over 85%; in experiment [4], 10 to 50%.
For `CC(C)(C(=O)NCCO)c1ccc(S(=O)(=O)/C=C/C#N)cc1` [Example 4, 2-[4-((E)-2-Cyano-ethenesulfonyl)-phenyl]-N-(2-hydroxy-ethyl)-isobutyramide], the inhibition at 10 µM in experiment [1] was under 10%; in experiment [2], under 10%; in experiment [3], 10 to 50%; in experiment [4] it was under 10%.
Take `CC(C)(C)c1cc(S(=O)(=O)/C=C/C#N)ccc1OCC(=O)NC1CCCCC1` [Example 63, 2-[2-tert-Butyl-4-((E)-2-cyano-ethenesulfonyl)-phenoxy]-N-cyclohexyl-acetamide]: the inhibition at 10 µM was over 85% in experiment [1], over 85% in experiment [2], over 85% in experiment [3] and 50 to 85% in experiment [4].
On to `CC(C)(C(=O)NCc1cccs1)c1ccc(S(=O)(=O)/C=C/C#N)cc1` [Example 15, 2-[4-((E)-2-Cyano-ethenesulfonyl)-phenyl]-N-thiophen-2-ylmethyl-isobutyramide], for which the inhibition at 10 µM is 50 to 85% in experiment [1], over 85% in experiment [2], under 10% in experiment [3] and 50 to 85% in experiment [4].
Turning to `CC(C)(C(=O)Nc1ccccc1O)c1ccc(S(=O)(=O)/C=C/C#N)cc1` [Example 73, 2-[4-((E)-2-Cyano-ethenesulfonyl)-phenyl]-N-(2-hydroxy-phenyl)-isobutyramide], the inhibition at 10 µM in experiment [1] is 50 to 85%; in experiment [2], 50 to 85%; in experiment [3], over 85%; in experiment [4], 10 to 50%.
In the case of `CC(C)(C(=O)NCc1ccccn1)c1ccc(S(=O)(=O)/C=C/C#N)cc1` [Example 7, 2-[4-((E)-2-Cyano-ethenesulfonyl)-phenyl]-N-pyridin-2-ylmethyl-isobutyramide], the inhibition at 10 µM in experiment [1] was 10 to 50%; in experiment [2] it was 10 to 50%; in experiment [3], under 10%; in experiment [4], 10 to 50%.
On to `C#CCCNC(=O)C(C)(C)c1ccc(S(=O)(=O)/C=C/C#N)cc1` [Example 80, N-But-3-ynyl-2-[4-((E)-2-cyano-ethenesulfonyl)-phenyl]-isobutyramide], for which the inhibition at 10 µM in experiment [1] is 50 to 85%; in experiment [2] it was 50 to 85%; in experiment [3] it was over 85%; in experiment [4] it was 10 to 50%.
Take `CC(C)(C)c1cccc(S(=O)(=O)/C=C/C#N)c1` [Example 54, (E)-3-(3-tert-Butyl-benzenesulfonyl)-acrylonitrile]: the inhibition at 10 µM in experiment [1] was over 85%; in experiment [2] it was over 85%; in experiment [3], under 10%; in experiment [4] it was over 85%.
Regarding `Cc1ccc(O)c(NC(=O)C(C)(C)c2ccc(S(=O)(=O)/C=C/C#N)cc2)c1` [Example 69, 2-[4-((E)-2-Cyano-ethenesulfonyl)-phenyl]-N-(2-hydroxy-5-methyl-phenyl)-isobutyramide], the inhibition at 10 µM in experiment [1] lay in the range of 10 to 50%; in experiment [2] it was 50 to 85%; in experiment [3], 50 to 85%; in experiment [4], 10 to 50%.
On to `CC(C)(c1ccc(S(=O)(=O)/C=C/C#N)cc1)c1nc2ccccc2o1` [Example 78, (E)-3-[4-(1-Benzoxazol-2-yl-1-methyl-ethyl)-benzenesulfonyl]-acrylonitrile], for which the inhibition at 10 µM in experiment [1] was 50 to 85%; in experiment [2], over 85%; in experiment [3] it was over 85%; in experiment [4], 50 to 85%.
For the molecule `CC(C)(C(=O)Nc1ccccc1)c1ccc(S(=O)(=O)/C=C/C#N)cc1` [Example 5, 2-[4-((E)-2-Cyano-ethenesulfonyl)-phenyl]-N-phenyl-isobutyramide], the inhibition at 10 µM in experiment [1] was 50 to 85%; in experiment [2], 50 to 85%; in experiment [3], under 10%; in experiment [4], 10 to 50%.
As for `CC(C)(C(=O)O)c1ccc(S(=O)(=O)/C=C/C#N)cc1` [Example 1, 2-[4-((E)-2-Cyano-ethenesulfonyl)-phenyl]-2-methyl-propionic acid], the inhibition at 10 µM in experiment [1] was under 10%; in experiment [2], under 10%; in experiment [3], 10 to 50%; in experiment [4], 10 to 50%.
With `CN1CCN(C(=O)C(C)(C)c2ccc(S(=O)(=O)/C=C/C#N)cc2)CC1` [Example 9, (E)-3-{4-[1,1-Dimethyl-2-(4-methyl-piperazin-1-yl)-2-oxo-ethyl]-benzenesulfonyl}-acrylonitrile], the inhibition at 10 µM in experiment [1], in experiment [2], in experiment [3] and in experiment [4] was under 10% each time.
With `CC(C)(C(=O)O)c1cccc(S(=O)(=O)/C=C/C#N)c1` [Example 2, 2-[3-((E)-2-Cyano-ethenesulfonyl)-phenyl]-2-methyl-propionic acid], the inhibition at 10 µM in experiment [1] was 10 to 50%; in experiment [2], under 10%; in experiment [3], 10 to 50%; in experiment [4], under 10%.
On to `CC(C)(C(=O)NCC#Cc1ccccc1)c1ccc(S(=O)(=O)/C=C/C#N)cc1` [Example 71, 2-[4-((E)-2-Cyano-ethenesulfonyl)-phenyl]-N-(3-phenyl-prop-2-ynyl)-isobutyramide], for which the inhibition at 10 µM was over 85% in experiment [1], over 85% in experiment [2], over 85% in experiment [3] and 50 to 85% in experiment [4].
As for `CC(C)(C(=O)NC1CCOCC1)c1ccc(S(=O)(=O)/C=C/C#N)cc1` [Example 13, 2-[4-((E)-2-Cyano-ethenesulfonyl)-phenyl]-N-(tetrahydro-pyran-4-yl)-isobutyramide], the inhibition at 10 µM in experiment [1] was under 10%; in experiment [2] it was under 10%; in experiment [3], 10 to 50%; in experiment [4], under 10%.
As to `CC(C)(C(=O)NCC1CC1)c1ccc(S(=O)(=O)/C=C/C#N)cc1` [Example 10], the inhibition at 10 µM in experiment [1] is 10 to 50%; in experiment [2], 50 to 85%; in experiment [3] it was under 10%; in experiment [4], 10 to 50%.
`CC(C)(C(=O)N1CCOCC1)c1ccc(S(=O)(=O)/C=C/C#N)cc1` [Example 3, (E)-3-[4-(1,1-Dimethyl-2-morpholin-4-yl-2-oxo-ethyl)-benzenesulfonyl]-acrylonitrile]: the inhibition at 10 µM in experiment [1] was 10 to 50%; in experiment [2] it was 10 to 50%; in experiment [3], under 10%; in experiment [4], under 10%.
Take `CC(C)(C)c1ccc2cc(S(=O)(=O)/C=C/C#N)ccc2n1` [Example 70, (E)-3-(2-tert-Butyl-quinoline-6-sulfonyl)-acrylonitrile]: the inhibition at 10 µM in experiment [1] is 50 to 85%; in experiment [2], over 85%; in experiment [3], over 85%; in experiment [4], 50 to 85%.
As for `CN(Cc1ccc(F)cc1)C(=O)C(C)(C)c1ccc(S(=O)(=O)/C=C/C#N)cc1` [Example 41, 2-[4-((E)-2-Cyano-ethenesulfonyl)-phenyl]-N-(4-fluoro-benzyl)-N-methyl-isobutyramide], the inhibition at 10 µM was over 85% in experiment [1], over 85% in experiment [3] and 50 to 85% in experiment [4].
`CC(C)(C(=O)NCc1ccc(S(C)(=O)=O)cc1)c1ccc(S(=O)(=O)/C=C/C#N)cc1` [Example 27, 2-[4-((E)-2-Cyano-ethenesulfonyl)-phenyl]-N-(4-methanesulfonyl-benzyl)-isobutyramide]: the inhibition at 10 µM in experiment [1] was under 10%; in experiment [3], 10 to 50%; in experiment [4], under 10%.
